PubChem BioAssay (NCI)
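In this assay, cells in 96-well plates receive the compound at five concentrations for 48 hours. Endpoints are linearly interpolated between the surrounding concentrations. TGI: concentration producing complete growth inhibition.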

test system: RXF-631 renal; assay: NCI tumour cell line growth inhibition, 48 h

Compound | TGI [µM]
COC(=O)C12CC3CC(CC(C(=O)O)(C3)C1)C2 | > 100
CCCCCCc1cc(C(=O)Nc2ccc(Cl)cc2)nc(=S)[nH]1 | > 100
CCN(CC)C1CC(O[C@H]2C[C@](O)(C(=O)CO)Cc3c(O)c4c(c(O)c32)C(=O)c2c(OC)cccc2C4=O)OC(C)C1O (some centres not stated) | 11.9

test system: NCI-H460 lung; assay: NCI tumour cell line growth inhibition, 48 h

Compound | TGI [µM]
CC(=O)O[C@H]1CCC2[C@@H]3CC[C@]4(C)CC(=O)C=C[C@]4(C)C3CC[C@@]21C (some centres not stated) | 32
O=C(CCc1nc(=S)[nH][nH]1)Nc1ccccc1Cl | > 100
O=C(CC(=O)n1nc(-c2ccccc2)c(N=Nc2ccc(Cl)cc2)c1-c1ccccc1)Nc1ccc(Cl)cc1 | > 59.4
COC(=O)C12CC3CC(CC(C(=O)O)(C3)C1)C2 | > 100
COc1cc2cc3c4cc(OC)c(OC)cc4cc[n+]3c(C)c2cc1OC (tested in a mixture with another compound) | > 100
CCN(CC)C1CC(O[C@H]2C[C@](O)(C(=O)CO)Cc3c(O)c4c(c(O)c32)C(=O)c2c(OC)cccc2C4=O)OC(C)C1O (some centres not stated) | 0.146

test system: SNB-19 CNS; assay: NCI tumour cell line growth inhibition, 48 h

Compound | TGI [µM]
CC(=O)O[C@H]1CCC2[C@@H]3CC[C@]4(C)CC(=O)C=C[C@]4(C)C3CC[C@@]21C (some centres not stated) | > 100
O=C(CCc1nc(=S)[nH][nH]1)Nc1ccccc1Cl | > 100
O=C(CC(=O)n1nc(-c2ccccc2)c(N=Nc2ccc(Cl)cc2)c1-c1ccccc1)Nc1ccc(Cl)cc1 | > 100
COC(=O)C12CC3CC(CC(C(=O)O)(C3)C1)C2 | > 100
CCCCCCc1cc(C(=O)Nc2ccc(Cl)cc2)nc(=S)[nH]1 | > 1
COc1cc2cc3c4cc(OC)c(OC)cc4cc[n+]3c(C)c2cc1OC (tested in a mixture with another compound) | > 100
CCN(CC)C1CC(O[C@H]2C[C@](O)(C(=O)CO)Cc3c(O)c4c(c(O)c32)C(=O)c2c(OC)cccc2C4=O)OC(C)C1O (some centres not stated) | 0.754

test system: UO-31 renal; assay: NCI tumour cell line growth inhibition, 48 h

Compound | TGI [µM]
CC(=O)O[C@H]1CCC2[C@@H]3CC[C@]4(C)CC(=O)C=C[C@]4(C)C3CC[C@@]21C (some centres not stated) | > 100
O=C(CCc1nc(=S)[nH][nH]1)Nc1ccccc1Cl | > 100
O=C(CC(=O)n1nc(-c2ccccc2)c(N=Nc2ccc(Cl)cc2)c1-c1ccccc1)Nc1ccc(Cl)cc1 | > 100
COC(=O)C12CC3CC(CC(C(=O)O)(C3)C1)C2 | > 100
CCCCCCc1cc(C(=O)Nc2ccc(Cl)cc2)nc(=S)[nH]1 | > 100
COc1cc2cc3c4cc(OC)c(OC)cc4cc[n+]3c(C)c2cc1OC (tested in a mixture with another compound) | > 100
CCN(CC)C1CC(O[C@H]2C[C@](O)(C(=O)CO)Cc3c(O)c4c(c(O)c32)C(=O)c2c(OC)cccc2C4=O)OC(C)C1O (some centres not stated) | 0.264

test system: TK-10 renal; assay: NCI tumour cell line growth inhibition, 48 h

Compound | TGI [µM]
CC(=O)O[C@H]1CCC2[C@@H]3CC[C@]4(C)CC(=O)C=C[C@]4(C)C3CC[C@@]21C (some centres not stated) | > 100
O=C(CCc1nc(=S)[nH][nH]1)Nc1ccccc1Cl | > 100
O=C(CC(=O)n1nc(-c2ccccc2)c(N=Nc2ccc(Cl)cc2)c1-c1ccccc1)Nc1ccc(Cl)cc1 | > 100
COC(=O)C12CC3CC(CC(C(=O)O)(C3)C1)C2 | > 100
COc1cc2cc3c4cc(OC)c(OC)cc4cc[n+]3c(C)c2cc1OC (tested in a mixture with another compound) | > 100
CCN(CC)C1CC(O[C@H]2C[C@](O)(C(=O)CO)Cc3c(O)c4c(c(O)c32)C(=O)c2c(OC)cccc2C4=O)OC(C)C1O (some centres not stated) | 2.57

test system: A498 renal; assay: NCI tumour cell line growth inhibition, 48 h

Compound | TGI [µM]
CC(=O)O[C@H]1CCC2[C@@H]3CC[C@]4(C)CC(=O)C=C[C@]4(C)C3CC[C@@]21C (some centres not stated) | > 100
O=C(CCc1nc(=S)[nH][nH]1)Nc1ccccc1Cl | > 100
O=C(CC(=O)n1nc(-c2ccccc2)c(N=Nc2ccc(Cl)cc2)c1-c1ccccc1)Nc1ccc(Cl)cc1 | > 100
COC(=O)C12CC3CC(CC(C(=O)O)(C3)C1)C2 | > 100
CCCCCCc1cc(C(=O)Nc2ccc(Cl)cc2)nc(=S)[nH]1 | > 1
COc1cc2cc3c4cc(OC)c(OC)cc4cc[n+]3c(C)c2cc1OC (tested in a mixture with another compound) | > 100
CCN(CC)C1CC(O[C@H]2C[C@](O)(C(=O)CO)Cc3c(O)c4c(c(O)c32)C(=O)c2c(OC)cccc2C4=O)OC(C)C1O (some centres not stated) | 0.0798

test system: EKVX NSCLC; assay: NCI tumour cell line growth inhibition, 48 h

Compound | TGI [µM]
CC(=O)O[C@H]1CCC2[C@@H]3CC[C@]4(C)CC(=O)C=C[C@]4(C)C3CC[C@@]21C (some centres not stated) | > 90.5
O=C(CCc1nc(=S)[nH][nH]1)Nc1ccccc1Cl | > 100
O=C(CC(=O)n1nc(-c2ccccc2)c(N=Nc2ccc(Cl)cc2)c1-c1ccccc1)Nc1ccc(Cl)cc1 | > 100
COC(=O)C12CC3CC(CC(C(=O)O)(C3)C1)C2 | > 100
CCCCCCc1cc(C(=O)Nc2ccc(Cl)cc2)nc(=S)[nH]1 | > 100
COc1cc2cc3c4cc(OC)c(OC)cc4cc[n+]3c(C)c2cc1OC (tested in a mixture with another compound) | > 100
CCN(CC)C1CC(O[C@H]2C[C@](O)(C(=O)CO)Cc3c(O)c4c(c(O)c32)C(=O)c2c(OC)cccc2C4=O)OC(C)C1O (some centres not stated) | 0.336

test system: RXF 393 renal; assay: NCI tumour cell line growth inhibition, 48 h

Compound | TGI [µM]
CC(=O)O[C@H]1CCC2[C@@H]3CC[C@]4(C)CC(=O)C=C[C@]4(C)C3CC[C@@]21C (some centres not stated) | 67.7
O=C(CCc1nc(=S)[nH][nH]1)Nc1ccccc1Cl | > 100
COc1cc2cc3c4cc(OC)c(OC)cc4cc[n+]3c(C)c2cc1OC (tested in a mixture with another compound) | > 100
CCN(CC)C1CC(O[C@H]2C[C@](O)(C(=O)CO)Cc3c(O)c4c(c(O)c32)C(=O)c2c(OC)cccc2C4=O)OC(C)C1O (some centres not stated) | 0.123

test system: HOP-18 NSCLC; assay: NCI tumour cell line growth inhibition, 48 h

Compound | TGI [µM]
CC(=O)O[C@H]1CCC2[C@@H]3CC[C@]4(C)CC(=O)C=C[C@]4(C)C3CC[C@@]21C (some centres not stated) | > 53.7
O=C(CCc1nc(=S)[nH][nH]1)Nc1ccccc1Cl | > 100
O=C(CC(=O)n1nc(-c2ccccc2)c(N=Nc2ccc(Cl)cc2)c1-c1ccccc1)Nc1ccc(Cl)cc1 | > 100
COC(=O)C12CC3CC(CC(C(=O)O)(C3)C1)C2 | > 100
COc1cc2cc3c4cc(OC)c(OC)cc4cc[n+]3c(C)c2cc1OC (tested in a mixture with another compound) | > 100

test system: CCRF-CEM leukemia; assay: NCI tumour cell line growth inhibition, 48 h

Compound | TGI [µM]
CC(=O)O[C@H]1CCC2[C@@H]3CC[C@]4(C)CC(=O)C=C[C@]4(C)C3CC[C@@]21C (some centres not stated) | 57.9
O=C(CCc1nc(=S)[nH][nH]1)Nc1ccccc1Cl | > 100
O=C(CC(=O)n1nc(-c2ccccc2)c(N=Nc2ccc(Cl)cc2)c1-c1ccccc1)Nc1ccc(Cl)cc1 | > 62.8
COC(=O)C12CC3CC(CC(C(=O)O)(C3)C1)C2 | > 100
CCCCCCc1cc(C(=O)Nc2ccc(Cl)cc2)nc(=S)[nH]1 | > 100
COc1cc2cc3c4cc(OC)c(OC)cc4cc[n+]3c(C)c2cc1OC (tested in a mixture with another compound) | > 100
CCN(CC)C1CC(O[C@H]2C[C@](O)(C(=O)CO)Cc3c(O)c4c(c(O)c32)C(=O)c2c(OC)cccc2C4=O)OC(C)C1O (some centres not stated) | 1.41

test system: SK-MEL-2 melanoma; assay: NCI tumour cell line growth inhibition, 48 h

Compound | TGI [µM]
CC(=O)O[C@H]1CCC2[C@@H]3CC[C@]4(C)CC(=O)C=C[C@]4(C)C3CC[C@@]21C (some centres not stated) | 38.7
O=C(CCc1nc(=S)[nH][nH]1)Nc1ccccc1Cl | > 100
O=C(CC(=O)n1nc(-c2ccccc2)c(N=Nc2ccc(Cl)cc2)c1-c1ccccc1)Nc1ccc(Cl)cc1 | > 100
CCCCCCc1cc(C(=O)Nc2ccc(Cl)cc2)nc(=S)[nH]1 | > 100
COc1cc2cc3c4cc(OC)c(OC)cc4cc[n+]3c(C)c2cc1OC (tested in a mixture with another compound) | > 100
CCN(CC)C1CC(O[C@H]2C[C@](O)(C(=O)CO)Cc3c(O)c4c(c(O)c32)C(=O)c2c(OC)cccc2C4=O)OC(C)C1O (some centres not stated) | 0.193

test system: NCI-H23 lung; assay: NCI tumour cell line growth inhibition, 48 h

Compound | TGI [µM]
CC(=O)O[C@H]1CCC2[C@@H]3CC[C@]4(C)CC(=O)C=C[C@]4(C)C3CC[C@@]21C (some centres not stated) | 53.8
O=C(CCc1nc(=S)[nH][nH]1)Nc1ccccc1Cl | > 100
O=C(CC(=O)n1nc(-c2ccccc2)c(N=Nc2ccc(Cl)cc2)c1-c1ccccc1)Nc1ccc(Cl)cc1 | > 100
COC(=O)C12CC3CC(CC(C(=O)O)(C3)C1)C2 | > 100
CCCCCCc1cc(C(=O)Nc2ccc(Cl)cc2)nc(=S)[nH]1 | > 100
COc1cc2cc3c4cc(OC)c(OC)cc4cc[n+]3c(C)c2cc1OC (tested in a mixture with another compound) | > 100
CCN(CC)C1CC(O[C@H]2C[C@](O)(C(=O)CO)Cc3c(O)c4c(c(O)c32)C(=O)c2c(OC)cccc2C4=O)OC(C)C1O (some centres not stated) | 0.154

test system: SF-295 CNS; assay: NCI tumour cell line growth inhibition, 48 h

Compound | TGI [µM]
CC(=O)O[C@H]1CCC2[C@@H]3CC[C@]4(C)CC(=O)C=C[C@]4(C)C3CC[C@@]21C (some centres not stated) | > 100
O=C(CCc1nc(=S)[nH][nH]1)Nc1ccccc1Cl | > 100
O=C(CC(=O)n1nc(-c2ccccc2)c(N=Nc2ccc(Cl)cc2)c1-c1ccccc1)Nc1ccc(Cl)cc1 | > 100
COC(=O)C12CC3CC(CC(C(=O)O)(C3)C1)C2 | > 100
COc1cc2cc3c4cc(OC)c(OC)cc4cc[n+]3c(C)c2cc1OC (tested in a mixture with another compound) | > 100
CCN(CC)C1CC(O[C@H]2C[C@](O)(C(=O)CO)Cc3c(O)c4c(c(O)c32)C(=O)c2c(OC)cccc2C4=O)OC(C)C1O (some centres not stated) | 0.468

test system: NCI/ADR-RES ovarian; assay: NCI tumour cell line growth inhibition, 48 h

Compound | TGI [µM]
CC(=O)O[C@H]1CCC2[C@@H]3CC[C@]4(C)CC(=O)C=C[C@]4(C)C3CC[C@@]21C (some centres not stated) | 40.5
COc1cc2cc3c4cc(OC)c(OC)cc4cc[n+]3c(C)c2cc1OC (tested in a mixture with another compound) | > 100

test system: SN12C renal; assay: NCI tumour cell line growth inhibition, 48 h

Compound | TGI [µM]
CC(=O)O[C@H]1CCC2[C@@H]3CC[C@]4(C)CC(=O)C=C[C@]4(C)C3CC[C@@]21C (some centres not stated) | 55.9
O=C(CCc1nc(=S)[nH][nH]1)Nc1ccccc1Cl | > 100
O=C(CC(=O)n1nc(-c2ccccc2)c(N=Nc2ccc(Cl)cc2)c1-c1ccccc1)Nc1ccc(Cl)cc1 | > 100
COC(=O)C12CC3CC(CC(C(=O)O)(C3)C1)C2 | > 100
CCCCCCc1cc(C(=O)Nc2ccc(Cl)cc2)nc(=S)[nH]1 | > 100
COc1cc2cc3c4cc(OC)c(OC)cc4cc[n+]3c(C)c2cc1OC (tested in a mixture with another compound) | > 100
CCN(CC)C1CC(O[C@H]2C[C@](O)(C(=O)CO)Cc3c(O)c4c(c(O)c32)C(=O)c2c(OC)cccc2C4=O)OC(C)C1O (some centres not stated) | 1.25

test system: 786-0 renal; assay: NCI tumour cell line growth inhibition, 48 h

Compound | TGI [µM]
CC(=O)O[C@H]1CCC2[C@@H]3CC[C@]4(C)CC(=O)C=C[C@]4(C)C3CC[C@@]21C (some centres not stated) | > 78.2
O=C(CCc1nc(=S)[nH][nH]1)Nc1ccccc1Cl | > 100
O=C(CC(=O)n1nc(-c2ccccc2)c(N=Nc2ccc(Cl)cc2)c1-c1ccccc1)Nc1ccc(Cl)cc1 | > 61.1
COC(=O)C12CC3CC(CC(C(=O)O)(C3)C1)C2 | > 100
COc1cc2cc3c4cc(OC)c(OC)cc4cc[n+]3c(C)c2cc1OC (tested in a mixture with another compound) | > 100
CCN(CC)C1CC(O[C@H]2C[C@](O)(C(=O)CO)Cc3c(O)c4c(c(O)c32)C(=O)c2c(OC)cccc2C4=O)OC(C)C1O (some centres not stated) | 0.541

test system: HS 578T breast; assay: NCI tumour cell line growth inhibition, 48 h

Compound | TGI [µM]
COc1cc2cc3c4cc(OC)c(OC)cc4cc[n+]3c(C)c2cc1OC (tested in a mixture with another compound) | > 100

test system: M14 melanoma; assay: NCI tumour cell line growth inhibition, 48 h

Compound | TGI [µM]
CC(=O)O[C@H]1CCC2[C@@H]3CC[C@]4(C)CC(=O)C=C[C@]4(C)C3CC[C@@]21C (some centres not stated) | 34.1
O=C(CCc1nc(=S)[nH][nH]1)Nc1ccccc1Cl | > 100
O=C(CC(=O)n1nc(-c2ccccc2)c(N=Nc2ccc(Cl)cc2)c1-c1ccccc1)Nc1ccc(Cl)cc1 | > 100
